The values below come from US12403150B2, “Tryptamine compositions for enhancing neurite outgrowth” (priority 2019, dated 2025).

Entries after “also recorded” stand apart in the source; their conditions may differ. Like-named read-outs stand apart in the source and are kept apart here.

One test deals with 5-HT2A receptor (Homo sapiens, UniProt P28223). The following applies: cited from earlier work.
The test system of test [1] is inflammation in the lungs. The following applies: in vivo; cited from earlier work.
Another test has as its system hallucinogenic effects. The following applies: cited from earlier work.
The subject of test [2] is PC12 cells treated with conditioned media from 1321N1 cells. In words: Neurite outgrowth of PC12 cells treated with conditioned media from 1321N1 cells. The test is classed as cell-based, rat. The following applies: conditioned media from treated 1321N1 human astrocytoma cells; n=3. The source says:
1321N1 human brain astrocytoma cells are known to excrete neurologically beneficial compounds when stimulated with neurotrophic compounds and fungal extracts including lion's mane (Mori et al., Biological and Pharmaceutical Bulletin, 9:1727-1732 (2008)). While some fungi have well established mechanisms by which they benefit neurological health, little is known about the role of psilocybin analogs specifically. Generally following the protocol of Mori et al., 2008, 1321N1 human astrocytoma cells were treated with psilocybin analogs, and conditioned media was collected and applied to differentiated rat pheochromocytoma PC12 cells to determine the resulting impact on neurite outgrowth.

Test [3] deals with Rat Induced Pluripotent Stem Cell (iPSC) Neuron Culture / cortical neurons from rat embryo. The test is classed as cell-based. The following applies: for Neurite length per neuron, % of control, Avg. / Neurite length per neuron, Length (μm), Avg. / Neurites per neuron, % of control, Avg. / Neurites per neuron, Number, Avg.: day 10. As for the experimental part: Experiments were conducted to evaluate the neurotrophic effects of several purified tryptamines, H. erinaceum extracts, and the tryptamines combined with selected extracts of H. erinaceum. The tryptamines, baeocystin, norbaeocystin, and norpsilocin, were evaluated at final concentrations of 0.3 μg/mL, 1 μg/mL, 3 μg/mL, and 10 μg/mL. The experiments analyzed the H. erinaceum growth medium (rice or rice and oat hull fiber), the days of cultivation, the extract solvent (water, ethanol, or ethyl acetate), and the final concentration of the extract (31.3 μg/mL, 62.5 μg/mL, 125 μg/mL or 250 μg/mL). Finally, combinations of the three tryptamines and representative H. erinaceum extracts were combined and evaluated.
Rat Induced Pluripotent Stem Cell (iPSC) Neuron Culture
The following protocol was performed for each independent culture. Six culture experiments were performed for each condition.
Results are expressed as mean (±Standard Deviation).

The test system of test [4] is nerve growth factor (NGF) protein. The experiment in a line: ELISA of NGF protein in human 1321N1 brain cells. The test is classed as cell-based. The following applies: human 1321N1 cells, compared to a vehicle control; n=3; p<0.05. From the text: Accordingly, preliminary research has started to reveal the mechanisms by which psilocybin analogs may confer neurotrophic benefits that facilitate neurite outgrowth.
(§1) See Ly et al., “Psychedelics Promote Structural and Functional Neural Plasticity,” Cell Rep.
(In general: An ELISA detects its analyte on a solid surface through an enzyme-linked reagent.)

Another test relates to IL-10. The experiment in a line: ELISA of IL-10 in human 1321N1 brain cells. The test is classed as cell-based.
Excerpt: as §1

Chain of 5-HT2A receptor (P28223 whole entry): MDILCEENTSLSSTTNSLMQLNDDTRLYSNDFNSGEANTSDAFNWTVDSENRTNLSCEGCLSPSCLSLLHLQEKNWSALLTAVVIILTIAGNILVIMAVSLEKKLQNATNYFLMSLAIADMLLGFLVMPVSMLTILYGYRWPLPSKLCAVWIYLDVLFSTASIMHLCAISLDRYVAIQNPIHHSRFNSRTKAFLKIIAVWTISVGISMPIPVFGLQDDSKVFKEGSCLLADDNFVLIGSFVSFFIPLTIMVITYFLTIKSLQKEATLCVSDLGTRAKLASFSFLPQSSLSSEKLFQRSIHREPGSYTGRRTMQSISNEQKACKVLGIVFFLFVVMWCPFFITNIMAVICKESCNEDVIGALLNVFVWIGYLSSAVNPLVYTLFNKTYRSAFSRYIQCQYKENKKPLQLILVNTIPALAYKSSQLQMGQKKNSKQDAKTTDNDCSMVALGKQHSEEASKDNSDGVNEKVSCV

For the molecule `COc1cc(C[C@@H](C)N)c(OC)cc1I` [(R)-2,5-dimethoxy-4-iodoamphetamine], the “activation of the 5-HT2A receptor” value on 5-HT2A receptor is listed as “activate the 5-HT2A receptor”. In addition, in test [1], the “inflammation in the lungs” value was “prevent and reverse inflammation in the lungs”.

With `CNCCc1c[nH]c2cccc(OP(=O)(O)O)c12` [baeocystin, 4-phosphoryloxy-N-methyltryptamine], in the test with hallucinogenic effects (4 mg, anecdotal experience), the “hallucinogenic effects after consumption” value was “gentle hallucinogenic experience”. Moreover, in the test with hallucinogenic effects (10 mg and 20 mg, case studies), the “hallucinogenic effects after oral consumption” value is “did not produce any hallucinogenic effects”. Also, in test [2], the “neurite outgrowth in PC12 cells by conditioned media” value (“neurite outgrowth in PC12 cells” for short) was “induce neurite outgrowth”. Besides, the “Neurite length per neuron, % of control, Avg.” value (from here on “Neurite length per neuron, %”) is listed as 119.24 % of control in test [3] (tryptamine 0.3 μg/mL), 112.34 % of control in test [3] (tryptamine 1 μg/mL), 118.42 % of control in test [3] (tryptamine 3 μg/mL) and 109.61 % of control in test [3] (tryptamine 10 μg/mL). Also, the “Neurite length per neuron, Length (μm), Avg.” value is listed as 418.30 μm in test [3] (tryptamine 0.3 μg/mL), 394.11 μm in test [3] (tryptamine 1 μg/mL), 415.42 μm in test [3] (tryptamine 3 μg/mL) and 384.52 μm in test [3] (tryptamine 10 μg/mL). Further, the “Neurites per neuron, % of control, Avg.” value in test [3] (tryptamine 0.3 μg/mL) is on record as 94.46 % of control; in test [3] (tryptamine 1 μg/mL), 93.66 % of control; in test [3] (tryptamine 3 μg/mL), 97.18 % of control; in test [3] (tryptamine 10 μg/mL), 96.87 % of control. Besides, the “Neurites per neuron, Number, Avg.” value in test [3] (tryptamine 0.3 μg/mL) was 2.99; in test [3] (tryptamine 1 μg/mL) it was 2.96; in test [3] (tryptamine 3 μg/mL), 3.07; in test [3] (tryptamine 10 μg/mL), 3.06.

As for `NCCc1c[nH]c2cccc(OP(=O)(O)O)c12` [norbaeocystin, 4-phosphoryloxy-tryptamine], the “expression of NGF protein” value in test [4] is reported as “increased expression of NGF protein; also recorded: induces the expression”. For the same molecule, in test [2], the “neurite outgrowth in PC12 cells” value is given as “induce neurite outgrowth”. Also, in test [3] (tryptamine 0.3 μg/mL), the “Neurite length per neuron, %” value is recorded as 128.69 % of control; the “Neurite length per neuron, Length (μm), Avg.” value came to 441.86 μm; the “Neurites per neuron, % of control, Avg.” value was 92.67 % of control; the “Neurites per neuron, Number, Avg.” value worked out at 3.09. In addition, in test [3] (tryptamine 1 μg/mL), the “Neurite length per neuron, %” value was 127.25 % of control; the “Neurite length per neuron, Length (μm), Avg.” value came out at 436.93 μm; the “Neurites per neuron, % of control, Avg.” value is 91.64 % of control; the “Neurites per neuron, Number, Avg.” value came out at 3.06. In test [3] (tryptamine 3 μg/mL), the “Neurite length per neuron, %” value is reported as 112.13 % of control; the “Neurite length per neuron, Length (μm), Avg.” value amounted to 385.00 μm; the “Neurites per neuron, % of control, Avg.” value is listed as 87.02 % of control; the “Neurites per neuron, Number, Avg.” value came out at 2.90. Also, in test [3] (tryptamine 10 μg/mL), the “Neurite length per neuron, %” value is on record as 112.67 % of control; the “Neurite length per neuron, Length (μm), Avg.” value amounted to 386.86 μm; the “Neurites per neuron, % of control, Avg.” value is 92.01 % of control; the “Neurites per neuron, Number, Avg.” value was found to be 3.07.

On to `CNCCc1c[nH]c2cccc(O)c12` [norpsilocin, 4-hydroxy-N-methyl-tryptamine], for which the “neurite outgrowth in PC12 cells” value in test [2] is “induce neurite outgrowth”. The “neurite outgrowth compared with vehicle control and other treatments, in words” value in test [3] (at the concentrations tested) was “did not perform better than vehicle control”. In test [3] (tryptamine 0.3 μg/mL), the “Neurite length per neuron, %” value was 107.70 % of control; the “Neurite length per neuron, Length (μm), Avg.” value is 344.09 μm; the “Neurites per neuron, % of control, Avg.” value is on record as 83.77 % of control; the “Neurites per neuron, Number, Avg.” value is given as 2.80. Moreover, in test [3] (tryptamine 1 μg/mL), the “Neurite length per neuron, %” value was 101.13 % of control; the “Neurite length per neuron, Length (μm), Avg.” value stood at 347.25 μm; the “Neurites per neuron, % of control, Avg.” value is listed as 87.18 % of control; the “Neurites per neuron, Number, Avg.” value was 2.91. Besides, in test [3] (tryptamine 3 μg/mL), the “Neurite length per neuron, %” value was 73.80 % of control; the “Neurite length per neuron, Length (μm), Avg.” value was 253.40 μm; the “Neurites per neuron, % of control, Avg.” value is recorded as 79.36 % of control; the “Neurites per neuron, Number, Avg.” value is recorded as 2.65. Also, in test [3] (tryptamine 10 μg/mL), the “Neurite length per neuron, %” value was 7.65 % of control; the “Neurite length per neuron, Length (μm), Avg.” value came out at 26.28 μm; the “Neurites per neuron, % of control, Avg.” value is 27.71 % of control; the “Neurites per neuron, Number, Avg.” value turned out to be 0.92. Besides, the “expression of the anti-inflammatory cytokine IL-10” value with IL-10 is listed as “induces the expression”.

B1: BDNF: brain-derived neurotrophic factor, positive control at 50 ng/ml (protein, UniProt P23560 19-247, looked up)
Neurotrophic factor BDNF …: APMKEANIRGQGGLAYPGVRTHGTLESVNGPKAGSRGLTSLADTFEHVIEELLDEDQKVRPNEENNKDADLYTSRVMLSSQVPLEPPLLFLLEEYKNYLDAANMSMRVRRHSDPARRGELSVCDSISEWVTAADKKTAVDMSGGTVTVLEKVPVSKGQLKQYFYETKCNPMGYTKEGCRGIDKRHWNSQCRTTQSYVRALTMDSKKRIGWRFIRIDTSCVCTLTIKRGR
Consider B1, for which the “Neurites per neuron, Number, Avg.” value in test [3] (50 ng/ml, positive control, one value per culture plate) is 3.82.
